Experimental data taken from patent US11840528B2 (Hoffmann-La Roche Inc., priority 2018, dated 2023).

Tests used:
[1] = target: T1, h-GABA-A α5β3γ2 (Homo sapiens, UniProt P18507+P31644); test: Two-electrode voltage clamp electrophysiology in Xenopus laevis oocytes expressing GABAA receptors, modulation of GABA EC20 current; type: cell-based; design: host or cells: Xenopus laevis oocytes micro-injected with RNA transcripts of the subunits; details: Table 1; for Efficacy (GABA) %: % modulation of GABA EC20 = 100*(Fold increase-1); for Fold increase h-GABA-A α5β3γ2 oocyte: test compound at approx. 30 fold its Ki, GABA at EC20
Method in brief: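 Human α5β3γ2 GABAA receptors were expressed in Xenopus oocytes by RNA injection, with γ2 RNA 5–10-fold higher, and recorded 3–5 days later by two-electrode voltage clamp at −80 mV at room temperature. The test compound, at about 30× its Ki, was co-applied during a second GABA EC20 pulse. Efficacy is the extremum of the point-by-point ratio to the first response, expressed as 100*(Fold increase−1).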

[2] = target: T1, h-GABA-A α5β3γ2; test: [3H]flumazenil competition binding assay, membranes of HEK293 cells expressing GABAA receptors; details: displacement of [3H]-Flumazenil 0.5 nM, HEK293 cells expressing human receptors, mean of two determinations; Table 1
Method in brief: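 Membranes from HEK293 cells transiently expressing human α5β3γ2 GABAA receptors, in Krebs-tris buffer pH 7.5, competed against [3H]flumazenil for 1 hour at 4° C to equilibrium. Bound radioactivity collected on GF/C filters and counted by liquid scintillation; Ki values are means of two determinations.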

Structure (SMILES)	Efficacy (GABA) % [1]	Fold increase h-GABA-A α5β3γ2 oocyte [1]	Ki [2]
Cc1ccc(-c2noc(C)c2Cn2ncc(N3CC(Oc4ccccn4)C3)cc2=O)cn1 [Example 124, 2-[[5-methyl-3-(6-methyl-3-pyridyl)isoxazol-4-yl]methyl]-5-[3-(2-pyridyloxy)azetidin-1-yl]pyridazin-3-one]	148%	2.48	12 nM
Cc1ccc(-c2noc(C)c2Cn2ncc(N3CC(Oc4cccnc4)C3)cc2=O)cn1 [Example 126, 2-[[5-methyl-3-(6-methyl-3-pyridyl)isoxazol-4-yl]methyl]-5-[3-(3-pyridyloxy)azetidin-1-yl]pyridazin-3-one]	134%	2.34	9.4 nM
Cc1ccc(-c2noc(C)c2Cn2ncc(N3CC(Oc4cccc(F)c4)C3)cc2=O)cn1 [Example 127, 5-[3-(3-fluorophenoxy)azetidin-1-yl]-2-[[5-methyl-3-(6-methyl-3-pyridyl)isoxazol-4-yl]methyl]pyridazin-3-one]	153%	2.53	7.3 nM
Cc1ccc(-c2noc(C)c2Cn2ncc(N3CC(Oc4ccccc4F)C3)cc2=O)cn1 [Example 128, 5-[3-(2-fluorophenoxy)azetidin-1-yl]-2-[[5-methyl-3-(6-methyl-3-pyridyl)isoxazol-4-yl]methyl]pyridazin-3-one]	120%	2.2	11.1 nM
Cc1ccc(-c2noc(C)c2Cn2ncc(N3CC(Oc4ccncc4)C3)cc2=O)cn1 [Example 129, 2-[[5-methyl-3-(6-methyl-3-pyridyl)isoxazol-4-yl]methyl]-5-[3-(4-pyridyloxy)azetidin-1-yl]pyridazin-3-one]	198%	2.98	4.5 nM
Cc1ccc(-c2noc(C)c2Cn2ncc(N3CC(Oc4ccc(Cl)cn4)C3)cc2=O)cn1 [Example 130, 5-[3-[(5-chloro-2-pyridyl)oxy]azetidin-1-yl]-2-[[5-methyl-3-(6-methyl-3-pyridyl)isoxazol-4-yl]methyl]pyridazin-3-one]	187%	2.87	25.1 nM
Cc1ccc(-c2noc(C)c2Cn2ncc(N3CC4(C[C@H](O)CO4)C3)cc2=O)cn1 [Example 131, 5-[(7S)-7-hydroxy-5-oxa-2-azaspiro[3.4]octan-2-yl]-2-[[5-methyl-3-(6-methyl-3-pyridyl)isoxazol-4-yl]methyl]pyridazin-3-one]	105%	2.05	17 nM
Cc1ccc(-c2noc(C)c2Cn2ncc(N3CC4(C[C@@H](O)CO4)C3)cc2=O)cn1 [Example 132, 5-[(7R)-7-hydroxy-5-oxa-2-azaspiro[3.4]octan-2-yl]-2-[[5-methyl-3-(6-methyl-3-pyridyl)isoxazol-4-yl]methyl]pyridazin-3-one]	119%	2.19	19.5 nM
CO[C@@H]1COC2(C1)CN(c1cnn(Cc3c(-c4ccc(C)nc4)noc3C)c(=O)c1)C2 [Example 133, 5-[(7S)-7-methoxy-5-oxa-2-azaspiro[3.4]octan-2-yl]-2-[[5-methyl-3-(6-methyl-3-pyridyl)isoxazol-4-yl]methyl]pyridazin-3-one]	172%	2.72	81.2 nM
CO[C@H]1COC2(C1)CN(c1cnn(Cc3c(-c4ccc(C)nc4)noc3C)c(=O)c1)C2 [Example 134, 5-[(7R)-7-methoxy-5-oxa-2-azaspiro[3.4]octan-2-yl]-2-[[5-methyl-3-(6-methyl-3-pyridyl)isoxazol-4-yl]methyl]pyridazin-3-one]	111%	2.11	16.6 nM
CCO[C@H]1COC2(C1)CN(c1cnn(Cc3c(-c4ccc(C)nc4)noc3C)c(=O)c1)C2 [Example 135, 5-[(7R)-7-ethoxy-5-oxa-2-azaspiro[3.4]octan-2-yl]-2-[[5-methyl-3-(6-methyl-3-pyridyl)isoxazol-4-yl]methyl]pyridazin-3-one]	119%	2.19	28.1 nM
Cc1ccc(-c2noc(C)c2Cn2ncc(N3CC(OC4CC4)C3)cc2=O)cn1 [Example 136, 5-[3-(cyclopropoxy)azetidin-1-yl]-2-[[5-methyl-3-(6-methyl-3-pyridyl)isoxazol-4-yl]methyl]pyridazin-3-one]	96%	1.96	5.2 nM
Cc1ccc(-c2noc(C)c2Cn2ncc(N(C)C3CN(C4CC4)C3)cc2=O)cn1 [Example 137, 5-((1-cyclopropylazetidin-3-yl)(methyl)amino)-2-((5-methyl-3-(6-methylpyridin-3-yl)isoxazol-4-yl)methyl)pyridazin-3(2H)-one]	110%	2.1	22.9 nM
Cc1ccc(-c2noc(C)c2Cn2ncc(N3CC(Oc4ccc(Cl)nc4)C3)cc2=O)cn1 [Example 138, 5-[3-[(6-chloro-3-pyridyl)oxy]azetidin-1-yl]-2-[[5-methyl-3-(6-methyl-3-pyridyl)isoxazol-4-yl]methyl]pyridazin-3-one]	105%	2.05	9.2 nM
COC1CCN(c2cnn(Cc3c(-c4ccc(C)nc4)noc3C)c(=O)c2)CC1 [Example 139, 5-(4-methoxy-1-piperidyl)-2-[[5-methyl-3-(6-methyl-3-pyridyl)isoxazol-4-yl]methyl]pyridazin-3-one]	132%	2.32	19.3 nM
COC1CN(c2cnn(Cc3c(-c4cc(C)on4)noc3C)c(=O)c2)C1 [Example 140, 5-(3-methoxyazetidin-1-yl)-2-[[5-methyl-3-(5-methylisoxazol-3-yl)isoxazol-4-yl]methyl]pyridazin-3-one]	62%	1.62	8.5 nM
Cc1cc(-c2noc(C)c2Cn2ncc(N3CC(OCC4CC4)C3)cc2=O)no1 [Example 141, 5-[3-(cyclopropylmethoxy)azetidin-1-yl]-2-[[5-methyl-3-(5-methylisoxazol-3-yl)isoxazol-4-yl]methyl]pyridazin-3-one]	107%	2.07	16 nM
Cc1cc(-c2noc(C)c2Cn2ncc(N3CC4(CCCO4)C3)cc2=O)no1 [Example 142, 2-[[5-methyl-3-(5-methylisoxazol-3-yl)isoxazol-4-yl]methyl]-5-(5-oxa-2-azaspiro[3.4]octan-2-yl)pyridazin-3-one]	48%	1.48	15.4 nM
Cc1onc(-c2ccc(Cl)cn2)c1Cn1ncc(N2CC(OCC3CC3)C2)cc1=O [Example 143, 2-((3-(5-Chloropyridin-2-yl)-5-methylisoxazol-4-yl)methyl)-5-(3-(cyclopropylmethoxy)azetidin-1-yl)pyridazin-3(2H)-one]	68%	1.68	3.3 nM
Cc1onc(-c2ccc(Cl)cn2)c1Cn1ncc(N2CC3(CCCO3)C2)cc1=O [Example 144, 2-((3-(5-Chloropyridin-2-yl)-5-methylisoxazol-4-yl)methyl)-5-(5-oxa-2-azaspiro[3.4]octan-2-yl)pyridazin-3(2H)-one]	20%	1.2	3.2 nM
COc1cccc(-c2cnn(Cc3c(-c4ccc(C)nc4)noc3C)c(=O)c2)n1 [Example 145, 5-(6-methoxy-2-pyridyl)-2-((5-methyl-3-(6-methyl-3-pyridyl)isoxazol-4-yl)methyl)pyridazin-3-one]	119%	2.19	26.2 nM
Cc1ccc(-c2noc(C)c2Cn2ncc(N3CC(Oc4ccnc(Cl)c4)C3)cc2=O)cn1 [Example 147, 5-[3-[(2-chloro-4-pyridyl)oxy]azetidin-1-yl]-2-[[5-methyl-3-(6-methyl-3-pyridyl)isoxazol-4-yl]methyl]pyridazin-3-one]	170%	2.7	12 nM
Cc1ccc(-c2noc(C)c2Cn2ncc(-c3cncc(Cl)c3)cc2=O)cn1 [Example 148, 5-(5-chloro-3-pyridyl)-2-((5-methyl-3-(6-methyl-3-pyridyl)isoxazol-4-yl)methyl)pyridazin-3-one]	248%	3.48	8.4 nM
Cc1ccc(-c2noc(C)c2Cn2ncc(-c3ccc(OC(F)F)nc3)cc2=O)cn1 [Example 149, 5-(6-(difluoromethoxy)pyridin-3-yl)-2-((5-methyl-3-(6-methylpyridin-3-yl)isoxazol-4-yl)methyl)pyridazin-3(2H)-one]	89%	1.89	20.2 nM
Cc1ccc(-c2noc(C)c2Cn2ncc(N3CC(OC(C)(C)C)C3)cc2=O)cn1 [Example 150, 5-(3-tert-butoxyazetidin-1-yl)-2-[[5-methyl-3-(6-methyl-3-pyridyl)isoxazol-4-yl]methyl]pyridazin-3-one]	85%	1.85	30.4 nM
